The results in this text go back to ChEMBL document CHEMBL1153306, “Relation between lipophilicity of alkyl gallates and antifungal activity against yeasts and filamentous fungi” (Bioorg Med Chem Lett, 2009).

Converted amounts (≈) assume the structure as drawn.

The subject of one data set is Candida albicans. The experiment in a line: Antifungal activity against Candida albicans after 48 hrs by broth microdilution technique. It is filed as functional. (In general: Dilution methods test growth across graded concentrations, often in twofold steps.)
A further data set relates to Candida tropicalis. The data set is described as follows: Antifungal activity against Candida tropicalis after 48 hrs by broth microdilution technique. It is filed as functional.
The test system of the next data set is Saccharomyces cerevisiae. The data set is described as follows: Antifungal activity against Saccharomyces cerevisiae after 48 hrs by broth microdilution technique. It is filed as functional.
Another data set deals with Cryptococcus neoformans. The experiment in a line: Antifungal activity against Cryptococcus neoformans after 48 hrs by broth microdilution technique. It is filed as functional.
The subject of a further data set is Aspergillus fumigatus. The experiment in a line: Antimicrobial activity against Aspergillus fumigatus after 48 hrs by broth microdilution technique. It is filed as functional.
Another data set relates to Aspergillus flavus. The data set is described as follows: Antimicrobial activity against Aspergillus flavus after 48 hrs by broth microdilution technique. It counts as functional.
The next data set relates to Aspergillus niger. The experiment in a line: Antimicrobial activity against Aspergillus niger after 48 hrs by broth microdilution technique. It is filed as functional.
In a further data set the test system is Nannizzia gypsea. The data set is described as follows: Antimicrobial activity against Microsporum gypseum after 48 hrs by broth microdilution technique. It is filed as functional.
A further data set deals with Epidermophyton floccosum. The experiment in a line: Antimicrobial activity against Epidermophyton floccosum after 48 hrs by broth microdilution technique. It is filed as functional.
In the next data set the test system is Trichophyton rubrum. The data set is described as follows: Antimicrobial activity against Trichophyton rubrum after 48 hrs by broth microdilution technique. It is filed as functional.
Data set [1] relates to Trichophyton mentagrophytes. The experiment in a line: Antimicrobial activity against Trichophyton mentagrophytes after 48 hrs by broth microdilution technique. It is filed as functional.
Data set [2] is described as follows: Lipophilicity, log P of the compound. It is filed as physicochemical. The settings on record: octanol/water.

One may read the MIC as the lowest concentration found to suppress growth. By logP is commonly meant a log measure of how a compound divides between an organic and an aqueous phase. Take `CCCCCCCCOC(=O)c1cc(O)c(O)c(O)c1` [OCTYL_GALLATE]: the MIC turned out to be 62.5 µg/mL (≈ 221 µM) against Candida albicans; 62.5 µg/mL (≈ 221 µM) in the data set with Candida tropicalis; 50 µg/mL (≈ 177 µM) against Saccharomyces cerevisiae; 50 µg/mL (≈ 177 µM) with Cryptococcus neoformans; 62.5 µg/mL (≈ 221 µM) with Aspergillus fumigatus; 62.5 µg/mL (≈ 221 µM) with Aspergillus flavus. Also, the MIC in the data set on Aspergillus niger was found to be 62.5 µg/mL (≈ 221 µM); with Nannizzia gypsea, 6.25 µg/mL (≈ 22.1 µM); against Epidermophyton floccosum, 6.25 µg/mL (≈ 22.1 µM); against Trichophyton rubrum, 6.25 µg/mL (≈ 22.1 µM); in data set [1] it was 12.5 µg/mL (≈ 44.3 µM). The molecule also returned a lipophilicity (logP) in [2] of 3.7.

Consider `CCCCCCCCCOC(=O)c1cc(O)c(O)c(O)c1` [NONYL GALLATE], for which the MIC in the data set on Candida albicans was determined as 8 µg/mL (≈ 27 µM); in the data set on Candida tropicalis, 8 µg/mL (≈ 27 µM); with Saccharomyces cerevisiae, 8 µg/mL (≈ 27 µM); against Cryptococcus neoformans, 8 µg/mL (≈ 27 µM); against Aspergillus fumigatus it was 62.5 µg/mL (≈ 211 µM); in the data set with Aspergillus flavus, 62.5 µg/mL (≈ 211 µM). Also, the minimal inhibitory concentration (MIC) came out at 125 µg/mL (≈ 422 µM) against Aspergillus niger; 8 µg/mL (≈ 27 µM) in the data set with Nannizzia gypsea; 25 µg/mL (≈ 84.4 µM) in the data set on Epidermophyton floccosum; 8 µg/mL (≈ 27 µM) in the data set with Trichophyton rubrum; 8 µg/mL (≈ 27 µM) in [1]. This molecule yielded a log partition coefficient (logP) in [2] of 3.7.

`CCOC(=O)c1cc(O)c(O)c(O)c1` [ETHYLGALLATE]: the MIC against Candida albicans, against Candida tropicalis, in the data set with Saccharomyces cerevisiae, against Cryptococcus neoformans, in the data set with Aspergillus fumigatus and against Aspergillus flavus was over 250 µg/mL throughout. In addition, the MIC in the data set on Aspergillus niger is over 250 µg/mL; with Nannizzia gypsea, 100 µg/mL (≈ 505 µM); against Epidermophyton floccosum it was 100 µg/mL (≈ 505 µM); in the data set with Trichophyton rubrum it was 100 µg/mL (≈ 505 µM); in [1] it was 100 µg/mL (≈ 505 µM).
